# Tests used:
# CYP109Q5 = biological target: T1, CYP109Q5 (Chondromyces apiculatus, UniProt A0A017T5A5); test: in vitro biotransformation, HPLC; assay type: biochemical; conditions: redox partners CamA/CamB from Pseudomonas putida, NAD(P)H, 1 mM substrate, 2 μM P450, pH 7.0, 30°C
# T1 construct: gene CAP_4855; native gene from genomic DNA in pBAD33, untagged, E. coli JW5510, partially purified by anion exchange
# T1 sequence (A0A017T5A5 1-397): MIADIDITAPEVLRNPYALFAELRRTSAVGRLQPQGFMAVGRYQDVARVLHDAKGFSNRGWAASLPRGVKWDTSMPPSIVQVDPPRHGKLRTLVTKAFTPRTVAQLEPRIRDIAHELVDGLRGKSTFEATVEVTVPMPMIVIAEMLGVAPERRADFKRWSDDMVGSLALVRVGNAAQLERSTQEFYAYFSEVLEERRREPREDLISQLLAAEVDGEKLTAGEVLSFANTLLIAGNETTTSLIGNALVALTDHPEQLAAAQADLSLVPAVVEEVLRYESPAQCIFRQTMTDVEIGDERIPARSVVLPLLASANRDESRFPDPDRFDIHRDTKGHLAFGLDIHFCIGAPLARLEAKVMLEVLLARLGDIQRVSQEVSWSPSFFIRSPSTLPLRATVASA
# CYP109B1 = biological target: T2, CYP109B1 (Bacillus subtilis, UniProt O34374); test: in vitro biotransformation, GC-FID / GC-MS; assay type: biochemical; conditions: redox partners CamA/CamB from Pseudomonas putida, NAD(P)H, 1 mM substrate, 2 μM P450, pH 7.0, 30°C, 2 h
# T2 construct: gene yjiB; purified enzyme; construct not described in main text
# T2 sequence (O34374 1-396): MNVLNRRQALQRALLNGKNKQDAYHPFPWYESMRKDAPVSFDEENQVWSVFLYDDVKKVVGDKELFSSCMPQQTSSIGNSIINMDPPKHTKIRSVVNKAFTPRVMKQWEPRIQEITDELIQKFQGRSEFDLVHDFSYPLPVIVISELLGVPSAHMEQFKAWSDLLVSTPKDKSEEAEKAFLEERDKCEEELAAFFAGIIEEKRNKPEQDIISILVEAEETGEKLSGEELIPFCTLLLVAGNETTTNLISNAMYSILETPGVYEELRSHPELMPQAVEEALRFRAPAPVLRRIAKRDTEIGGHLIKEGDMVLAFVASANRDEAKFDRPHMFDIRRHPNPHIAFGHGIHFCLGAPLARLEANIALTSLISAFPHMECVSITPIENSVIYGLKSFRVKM
Structure (SMILES),"in vitro biotransformation, HPLC (CYP109Q5)","in vitro biotransformation, GC-FID / GC-MS (CYP109B1)"
"O=C(O)Cc1ccccc1Nc1c(Cl)cccc1Cl [compound 26, diclofenac]","CYP109Q5 also exhibited activities towards diclofenac, mefenamic acid, nerolidol, camphor",
"CC(=O)/C=C/C1=C(C)CCCC1(C)C [compound 1, β‐ionone]",,The reference CYP109B1 hydroxylated β‐ionone exclusively in the allylic position

# Reference: publication PMC6389848, “Characterization and structure‐guided engineering of the novel versatile terpene monooxygenase CYP109Q5 from Chondromyces apiculatus DSM436” (Microbial Biotechnology, 2018)
